This experiment deals with T1, E-selectin (Homo sapiens, UniProt P16581).
T1 construct: fused on or other part: Immunoglobulin (Ig) portion fused to E-selectin as a handle for immobilisation
T1 sequence (P16581 22-175 limits assumed): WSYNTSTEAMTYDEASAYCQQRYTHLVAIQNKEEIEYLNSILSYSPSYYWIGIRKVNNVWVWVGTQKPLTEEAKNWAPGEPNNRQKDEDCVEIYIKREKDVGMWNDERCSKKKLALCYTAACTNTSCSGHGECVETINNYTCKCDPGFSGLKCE
Nature of the experiment: E-selectin competitive binding assay (inhibition of sLe^a binding to immobilized E-selectin/Ig chimera). To be noted: biotinylated sLe^a polyacrylamide with streptavidin/HRP, TMB, 450 nm, read-out: IC50 (μM), E-Selectin Antagonist Activity. The protocol: The inhibition assay to screen for and characterize glycomimetic antagonists of E-selectin is a competitive binding assay, which allows the determination of IC50 values. E-selectin/Ig chimera was immobilized in 96 well microtiter plates by incubation at 37° C. for 2 hours. To reduce nonspecific binding, bovine serum albumin was added to each well and incubated at room temperature for 2 hours. The plate was washed and serial dilutions of the test compounds were added to the wells in the presence of conjugates of biotinylated, sLe^a polyacrylamide with streptavidin/horseradish peroxidase and incubated for 2 hours at room temperature.
To determine the amount of sLe^a bound to immobilized E-selectin after washing, the peroxidase substrate, 3,3′,5,5′ tetramethylbenzidine (TMB) was added. After 3 minutes, the enzyme reaction was stopped by the addition of H3PO4, and the absorbance of light at a wavelength of 450 nm was determined.
In addition to reporting the absolute IC50 value as measured above, relative IC50 values (rIC50) are determined by a ratio of the IC50 measured for the test compound to that of an internal control (reference) stated for each assay.

These results are taken from US20170296566A9, “METHODS AND COMPOSITIONS FOR TREATING AND/OR PREVENTING MUCOSITIS” (GLYCOMIMETICS, INC., priority 2013, published 2017).

By IC50 is commonly meant the concentration that inhibits the measured activity by half.

For `CCC1CC(C(=O)NCCNC(=O)c2nc(C)cs2)C[C@@H](O[C@@H]2OC(CO)[C@H](O)C(O[C@@H](CC3CCCCC3)C(=O)O)C2NC(C)=O)C1OC1O[C@@H](C)C(O)C(O)[C@@H]1O` (some centres unmarked) [Compound 28], the half-inhibitory concentration (IC50) was under 4 µM.

Regarding `CCC1CC(C(=O)OC)C[C@@H](O[C@@H]2OC(CO)[C@H](O)C(O[C@@H](CC3CCCCC3)C(=O)O)C2NC(=O)C(F)(F)F)C1OC1O[C@@H](C)C(O)C(O)[C@@H]1O` (some centres unmarked) [Compound 27], the IC50 is under 4 µM.

Take `CCC1CC(C(=O)NCCNC(=O)Cc2cc(=O)oc3cc(O)ccc23)C[C@@H](O[C@@H]2OC(CO)[C@H](O)C(O[C@@H](CC3CCCCC3)C(=O)O)C2NC(C)=O)C1OC1O[C@@H](C)C(O)C(O)[C@@H]1O` (some centres unmarked) [Compound 29]: the half-maximal inhibitory concentration (IC50) is under 4 µM.

As to `CCC1CC(C(=O)NCCNC(=O)CCOCCOCCOCCOCCOCCOCCOCCOCCOCCOCCOCCOC)CC(OC2OC(CO)C(O)C(OC(CC3CCCCC3)C(=O)N(C)C)C2NC(C)=O)C1OC1OC(C)C(O)C(O)C1O` (centres unmarked) [Compound 45], the concentration for half-maximal inhibition (IC50) is under 4 µM.

In the case of `CCC1CC(C(=O)OC)C[C@@H](O[C@@H]2O[C@@H](CO)[C@H](O)C(O[C@@H](CC3CCCCC3)C(=O)O)C2NC(C)=O)[C@@H]1OC1O[C@@H](C)[C@H](O)C(O)[C@@H]1O` (some centres unmarked) [Compound 22], the IC50 is under 4 µM.
